Laboratory results reported in PubChem BioAssay (NCI).
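Compound exposure: 48 hours, 5 concentrations, 96-well plates. TGI: total growth inhibition.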

What follows are molecules tested on SF-295 CNS (assay: DTP human tumour cell line panel, 48 h).
`CC1(c2cccs2)CC(c2cccs2)=C(C#N)C(=C(C#N)C#N)N1` (stereo not given) showed a TGI of 32.6 µM.
For `O=C(C=P(c1ccccc1)(c1ccccc1)c1ccccc1)c1ccc(-c2cccc([N+](=O)[O-])c2)s1`, the TGI was > 100 µM.
For `CCOC(=O)c1c(NC(=O)c2cccs2)sc2c1CCCC2`, the TGI was > 100 µM.
For `Nc1ccc(-c2nc3cc(F)ccc3s2)cc1Cl`, the TGI was > 72.3 µM.
In the case of `OC1(C(F)(F)F)OCCN=C1C(F)(F)F` (stereo not given), the TGI was > 100 µM.
With `CCCC(=O)n1[nH]c(=O)n(-c2ccc(Cl)cc2)c1=O` the TGI was > 100 µM.

Each molecule was assayed on CCRF-CEM leukemia (assay: DTP human tumour cell line panel, 48 h).
With `CC1(c2cccs2)CC(c2cccs2)=C(C#N)C(=C(C#N)C#N)N1` (stereo not given) the TGI was 27.9 µM.
For `O=C(C=P(c1ccccc1)(c1ccccc1)c1ccccc1)c1ccc(-c2cccc([N+](=O)[O-])c2)s1`, the TGI was > 100 µM.
In the case of `CCOC(=O)c1c(NC(=O)c2cccs2)sc2c1CCCC2`, the TGI was > 100 µM.
For `Nc1ccc(-c2nc3cc(F)ccc3s2)cc1Cl`, the TGI was > 100 µM.
With `OC1(C(F)(F)F)OCCN=C1C(F)(F)F` (stereo not given) the TGI was > 100 µM.
`CCCC(=O)n1[nH]c(=O)n(-c2ccc(Cl)cc2)c1=O` was tested, and the TGI was > 100 µM.

Each molecule was assayed on MALME-3M melanoma (assay: DTP human tumour cell line panel, 48 h).
Molecule `CC1(c2cccs2)CC(c2cccs2)=C(C#N)C(=C(C#N)C#N)N1` (stereo not given) has a TGI of 35 µM.
In the case of `O=C(C=P(c1ccccc1)(c1ccccc1)c1ccccc1)c1ccc(-c2cccc([N+](=O)[O-])c2)s1`, the TGI was > 100 µM.
For `CCOC(=O)c1c(NC(=O)c2cccs2)sc2c1CCCC2`, the TGI was > 74.5 µM.
Molecule `Nc1ccc(-c2nc3cc(F)ccc3s2)cc1Cl` has a TGI of 67.8 µM.
Molecule `OC1(C(F)(F)F)OCCN=C1C(F)(F)F` (stereo not given) has a TGI of 76.4 µM.
With `CCCC(=O)n1[nH]c(=O)n(-c2ccc(Cl)cc2)c1=O` the TGI was > 100 µM.

Each molecule was assayed on ACHN renal (assay: DTP human tumour cell line panel, 48 h).
With `CC1(c2cccs2)CC(c2cccs2)=C(C#N)C(=C(C#N)C#N)N1` (stereo not given) the TGI was 32.1 µM.
`O=C(C=P(c1ccccc1)(c1ccccc1)c1ccccc1)c1ccc(-c2cccc([N+](=O)[O-])c2)s1` was tested, and the TGI was > 100 µM.
`CCOC(=O)c1c(NC(=O)c2cccs2)sc2c1CCCC2` was tested, and the TGI was > 100 µM.
In the case of `Nc1ccc(-c2nc3cc(F)ccc3s2)cc1Cl`, the TGI was > 85 µM.
For `OC1(C(F)(F)F)OCCN=C1C(F)(F)F` (stereo not given), the TGI was > 100 µM.
In the case of `CCCC(=O)n1[nH]c(=O)n(-c2ccc(Cl)cc2)c1=O`, the TGI was > 100 µM.

What follows are molecules tested on LOX IMVI melanoma (assay: DTP human tumour cell line panel, 48 h).
In the case of `CC1(c2cccs2)CC(c2cccs2)=C(C#N)C(=C(C#N)C#N)N1` (stereo not given), the TGI was 32.4 µM.
With `O=C(C=P(c1ccccc1)(c1ccccc1)c1ccccc1)c1ccc(-c2cccc([N+](=O)[O-])c2)s1` the TGI was > 100 µM.
For `CCOC(=O)c1c(NC(=O)c2cccs2)sc2c1CCCC2`, the TGI was > 100 µM.
`Nc1ccc(-c2nc3cc(F)ccc3s2)cc1Cl` was tested, and the TGI was > 100 µM.
`OC1(C(F)(F)F)OCCN=C1C(F)(F)F` (stereo not given) was tested, and the TGI was > 100 µM.
In the case of `CCCC(=O)n1[nH]c(=O)n(-c2ccc(Cl)cc2)c1=O`, the TGI was > 100 µM.

The molecules below were run on OVCAR-4 ovarian (assay: DTP human tumour cell line panel, 48 h).
With `CC1(c2cccs2)CC(c2cccs2)=C(C#N)C(=C(C#N)C#N)N1` (stereo not given) the TGI was 32.3 µM.
For `O=C(C=P(c1ccccc1)(c1ccccc1)c1ccccc1)c1ccc(-c2cccc([N+](=O)[O-])c2)s1`, the TGI was > 100 µM.
With `CCOC(=O)c1c(NC(=O)c2cccs2)sc2c1CCCC2` the TGI was > 100 µM.
`Nc1ccc(-c2nc3cc(F)ccc3s2)cc1Cl` was tested, and the TGI was > 100 µM.
In the case of `OC1(C(F)(F)F)OCCN=C1C(F)(F)F` (stereo not given), the TGI was > 100 µM.
`CCCC(=O)n1[nH]c(=O)n(-c2ccc(Cl)cc2)c1=O` was tested, and the TGI was > 100 µM.

Each molecule was assayed on SK-OV-3 ovarian (assay: DTP human tumour cell line panel, 48 h).
Work on `CC1(c2cccs2)CC(c2cccs2)=C(C#N)C(=C(C#N)C#N)N1` (stereo not given) yielded a TGI of 37.1 µM.
`O=C(C=P(c1ccccc1)(c1ccccc1)c1ccccc1)c1ccc(-c2cccc([N+](=O)[O-])c2)s1` was tested, and the TGI was > 100 µM.
In the case of `CCOC(=O)c1c(NC(=O)c2cccs2)sc2c1CCCC2`, the TGI was 79.5 µM.
With `Nc1ccc(-c2nc3cc(F)ccc3s2)cc1Cl` the TGI was 52.6 µM.
With `OC1(C(F)(F)F)OCCN=C1C(F)(F)F` (stereo not given) the TGI was > 100 µM.
`CCCC(=O)n1[nH]c(=O)n(-c2ccc(Cl)cc2)c1=O` was tested, and the TGI was > 100 µM.

What follows are molecules tested on NCI-H460 lung (assay: DTP human tumour cell line panel, 48 h).
`CC1(c2cccs2)CC(c2cccs2)=C(C#N)C(=C(C#N)C#N)N1` (stereo not given) gave a TGI of 43.9 µM.
With `O=C(C=P(c1ccccc1)(c1ccccc1)c1ccccc1)c1ccc(-c2cccc([N+](=O)[O-])c2)s1` the TGI was > 100 µM.
With `CCOC(=O)c1c(NC(=O)c2cccs2)sc2c1CCCC2` the TGI was > 100 µM.
`Nc1ccc(-c2nc3cc(F)ccc3s2)cc1Cl` showed a TGI of 25 µM.
For `OC1(C(F)(F)F)OCCN=C1C(F)(F)F` (stereo not given), the TGI was > 100 µM.
For `CCCC(=O)n1[nH]c(=O)n(-c2ccc(Cl)cc2)c1=O`, the TGI was > 100 µM.

What follows are molecules tested on A549 NSCLC (assay: DTP human tumour cell line panel, 48 h).
`CC1(c2cccs2)CC(c2cccs2)=C(C#N)C(=C(C#N)C#N)N1` (stereo not given) showed a TGI of 48.6 µM.
For `O=C(C=P(c1ccccc1)(c1ccccc1)c1ccccc1)c1ccc(-c2cccc([N+](=O)[O-])c2)s1`, the TGI was > 100 µM.
For `CCOC(=O)c1c(NC(=O)c2cccs2)sc2c1CCCC2`, the TGI was > 100 µM.
In the case of `Nc1ccc(-c2nc3cc(F)ccc3s2)cc1Cl`, the TGI was > 100 µM.
`OC1(C(F)(F)F)OCCN=C1C(F)(F)F` (stereo not given) was tested, and the TGI was > 100 µM.
With `CCCC(=O)n1[nH]c(=O)n(-c2ccc(Cl)cc2)c1=O` the TGI was > 100 µM.

These molecules were tested on HCT-15 colon (assay: DTP human tumour cell line panel, 48 h).
With `CC1(c2cccs2)CC(c2cccs2)=C(C#N)C(=C(C#N)C#N)N1` (stereo not given) the TGI was 33.8 µM.
For `O=C(C=P(c1ccccc1)(c1ccccc1)c1ccccc1)c1ccc(-c2cccc([N+](=O)[O-])c2)s1`, the TGI was > 100 µM.
In the case of `CCOC(=O)c1c(NC(=O)c2cccs2)sc2c1CCCC2`, the TGI was > 100 µM.
In the case of `Nc1ccc(-c2nc3cc(F)ccc3s2)cc1Cl`, the TGI was > 100 µM.
For `OC1(C(F)(F)F)OCCN=C1C(F)(F)F` (stereo not given), the TGI was > 100 µM.
With `CCCC(=O)n1[nH]c(=O)n(-c2ccc(Cl)cc2)c1=O` the TGI was > 100 µM.
